# Measured values from ChEMBL document CHEMBL1201862, “PubChem BioAssay data set” (2004).
# Active and inactive are the calls of the source.
# Experiments:
# [1] = tested on: Streptococcus sp. 'group A'; assay: growth inhibition of control SK(-) GAS strain, dose response, counter-screen for streptokinase expression inhibitor project, luminescence, kanamycin, BacTiterGlo, confirmation (AID 1900); type: functional, organism-based
# Streptokinase A = biological target: T1, Streptokinase A (Streptococcus pyogenes serotype M1, UniProt P10520); assay: S. pyogenes streptokinase expression inhibitors, potency, dose response, plasminogen activation absorbance, OD405 (AID 1914); type: functional, Streptococcus pyogenes M1 GAS;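 note: secreted streptokinase activity via plasminogen activation per viability signal from cell pellet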
# T1 sequence (P10520 whole entry): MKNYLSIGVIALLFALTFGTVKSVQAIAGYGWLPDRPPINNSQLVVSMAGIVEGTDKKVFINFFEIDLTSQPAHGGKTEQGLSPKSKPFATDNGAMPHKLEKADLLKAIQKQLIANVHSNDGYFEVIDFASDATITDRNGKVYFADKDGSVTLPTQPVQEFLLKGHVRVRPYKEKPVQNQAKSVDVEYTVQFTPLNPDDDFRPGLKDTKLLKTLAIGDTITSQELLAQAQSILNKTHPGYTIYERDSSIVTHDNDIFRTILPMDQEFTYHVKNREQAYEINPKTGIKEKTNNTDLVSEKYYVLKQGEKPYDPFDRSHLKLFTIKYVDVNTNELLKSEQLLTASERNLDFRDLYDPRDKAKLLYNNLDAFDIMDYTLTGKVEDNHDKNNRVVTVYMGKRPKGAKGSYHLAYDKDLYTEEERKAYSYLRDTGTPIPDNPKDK
# [2] = microbe, parasite or virus in culture; type: functional; details: Mycobacterium tuberculosis
# Streptococcus = assay: Group A Streptococcus viability loss, dose response, counter-screen for streptokinase expression inhibitor project, luminescence, BacTiterGlo (AID 1915); type: functional, organism-based;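 note: potency for reduction of bacterial viability or growth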
# [3] = Luminescence Cell-Based Dose Retest to Confirm Inhibitors of Cancer Stem Cells. [Related pubchem assays (depositor defined):AID2717, AID2721]; type: functional; details: Homo sapiens
# [4] = growth suppression of PTEN-null colon cells, dose response, cell-based, HCT116 PTEN knockout (AID 1047); type: functional;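 note: HCT116 colon tumor cells with PTEN knocked out; cells exposed to compound for 60 hours before readout; potency for loss of cell viability measured by luminescence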
# [5] = growth suppression of beta-catenin-knockout colon cells, dose response, cell-based, HCT116, human colon tumor (AID 1045); type: functional;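 note: HCT116 colon tumor cells with beta catenin knocked out; cells exposed to compound for 60 hours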
# [6] = Shn3 3'UTR reporter inhibitors, dose response, cell-based, Clone20 osteoblasts, firefly luciferase, cherry-picked (AID 624132); type: functional;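 note: firefly luciferase luminescence from reporter carrying the Shn3 3'UTR in osteoblasts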
# [7] = HepG2 cell cytotoxicity, dose response, cytotoxicity control for Shn3 inhibitor project, CellTiter-Glo, cherry-picked (AID 624134); type: functional, cell-based
# [8] = control 3'UTR Renilla luciferase suppression, dose response, counter-screen for Shn3 inhibitor project, cell-based, Clone20-Shn3RL, cherry-picked (AID 624133); type: functional
# [9] = biological target: Induced myeloid leukemia cell differentiation protein Mcl-1 (Homo sapiens, UniProt Q07820); type: functional
# [10] = biological target: T2, Calpain-2 catalytic subunit (Sus scrofa, UniProt P43367); assay: pig calpain II inhibitor potency, dose response, biochemical, fluorogenic peptide substrate (AID 1420); type: functional
# T2 sequence (P43367 whole entry): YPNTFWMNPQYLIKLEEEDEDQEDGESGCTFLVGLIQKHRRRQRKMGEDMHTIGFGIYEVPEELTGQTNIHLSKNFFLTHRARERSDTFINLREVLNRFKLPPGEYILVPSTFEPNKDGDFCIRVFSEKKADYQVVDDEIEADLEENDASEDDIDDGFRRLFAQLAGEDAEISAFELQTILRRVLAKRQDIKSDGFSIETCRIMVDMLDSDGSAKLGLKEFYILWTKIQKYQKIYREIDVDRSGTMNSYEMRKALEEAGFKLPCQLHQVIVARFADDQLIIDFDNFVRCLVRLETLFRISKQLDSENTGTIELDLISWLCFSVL
# [11] = inhibitors of HIV Env-driven cell fusion, dose response, cherry-pick (AID 652057); type: functional, cell-based
# [12] = inhibitors of clade B AD8 Env fusion, dose response, cell-based, cherry-pick (AID 652062); type: functional;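 note: luciferase signal from cell-cell fusion driven by HIV-1 clade B AD8 Env; potency is for inhibitors of fusion seen as a drop in luminescence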
# [13] = biological target: T3, Ubiquitin-conjugating enzyme E2 N (Homo sapiens, UniProt P61088); type: functional;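 note: Dose-response confirmation in a TR-FRET assay detecting UBC13-driven polyubiquitin chain formation, inhibition measured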
# T3 sequence (P61088 whole entry): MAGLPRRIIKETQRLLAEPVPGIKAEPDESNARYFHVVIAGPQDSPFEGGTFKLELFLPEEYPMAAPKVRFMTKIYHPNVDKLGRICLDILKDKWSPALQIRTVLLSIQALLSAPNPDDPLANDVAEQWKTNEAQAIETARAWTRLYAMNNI
# [14] = cytotoxicity in HEK-293T cells, dose response, cytotoxicity control for BCR NF-kB inhibitor project, luminescence, B-cell screen hits (AID 489021); type: functional, cell-based;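 note: HEK-293T cells carrying an NF-kB luciferase reporter; cells exposed to compound for about 14 hours before viability readout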
# INS1 = assay: beta cell apoptosis inhibitors, cytokine rescue, dose response, luminescence, retest (AID 449756); type: functional, cell-based; details: Rattus norvegicus, INS1;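 note: cell death triggered by IL-1 beta plus TNF-alpha plus IFN-gamma mixture; protective hits raise ATP signal compared with cytokine alone wells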
# [15] = biological target: Glucose-6-phosphate 1-dehydrogenase (Homo sapiens, UniProt P11413); assay: human G6PD enzyme inhibitors, dose response, selectivity assay for P. falciparum G6PD inhibitor project, biochemical, fluorescence (AID 504792); type: functional
# [16] = biological target: T4, Carboxy-terminal domain RNA polymerase II polypeptide A small phosphatase 1 (Homo sapiens, UniProt Q9GZU7); assay: inhibitors of CTDSP1, concentration-response testing, biochemical assay, absorbance-based, actives from ultra-high-throughput screening (AID 540297); type: functional
# T4 sequence (Q9GZU7 whole entry): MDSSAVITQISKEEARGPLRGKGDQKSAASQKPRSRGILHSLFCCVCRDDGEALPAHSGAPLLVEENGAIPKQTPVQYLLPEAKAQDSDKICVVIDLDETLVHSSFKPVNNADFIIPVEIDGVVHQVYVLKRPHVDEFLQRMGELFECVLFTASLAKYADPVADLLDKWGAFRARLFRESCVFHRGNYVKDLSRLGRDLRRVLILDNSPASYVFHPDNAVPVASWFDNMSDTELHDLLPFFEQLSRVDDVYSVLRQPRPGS
# cells = type: functional
# Genome polyprotein = Genome polyprotein (dengue virus type 2, UniProt P29990); assay: Dengue-2 NS5 methyltransferase inhibitors, primary screen, biochemical, confirmation dose response (AID 588689); type: functional
# [17] = Luminescence Cell-Based Dose Confirmation HTS to Identify Activators of 5'UTR Stem-Loop Driven Alpha-Synuclein mRNA Translation in H4 Neuroglioblastoma Cells. [Related pubchem assays: 1829 (Project Summary), 1814 (Primary HTS)]; type: functional
# [18] = Luminescence Cell-Based Dose Response HTS to Identify Activators of Luciferase Translation or Activity in H4 […] Cells. [Related pubchem assays: 1829 (Project Summary), 1814 (Primary HTS)]; type: functional
# H4 = assay: Luminescence Cell-Based Dose Response HTS to Identify Activators of 5'UTR Stem-Loop Driven Prion Protein mRNA Translation in H4 Neuroglioblastoma Cells. [Related pubchem assays: 1829 (Project Summary), 1814 (Primary HTS)]; type: functional; details: Homo sapiens
# [19] = biological target: T5, Heat shock factor protein 1 (Mus musculus, UniProt P38532); assay: HSF1 potentiators in luciferase reporter cells, confirmation, cell-based, NIH3T3, luminescence, dose retest (AID 435004); type: functional;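 note: stress induced by proteasome inhibitor MG132 added 30 min after compound; luciferase reporter driven by HSF1 response element in NIH3T3 cells; actives raise luminescence as potentiators of the MG132 stress response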
# T5 sequence (P38532 whole entry): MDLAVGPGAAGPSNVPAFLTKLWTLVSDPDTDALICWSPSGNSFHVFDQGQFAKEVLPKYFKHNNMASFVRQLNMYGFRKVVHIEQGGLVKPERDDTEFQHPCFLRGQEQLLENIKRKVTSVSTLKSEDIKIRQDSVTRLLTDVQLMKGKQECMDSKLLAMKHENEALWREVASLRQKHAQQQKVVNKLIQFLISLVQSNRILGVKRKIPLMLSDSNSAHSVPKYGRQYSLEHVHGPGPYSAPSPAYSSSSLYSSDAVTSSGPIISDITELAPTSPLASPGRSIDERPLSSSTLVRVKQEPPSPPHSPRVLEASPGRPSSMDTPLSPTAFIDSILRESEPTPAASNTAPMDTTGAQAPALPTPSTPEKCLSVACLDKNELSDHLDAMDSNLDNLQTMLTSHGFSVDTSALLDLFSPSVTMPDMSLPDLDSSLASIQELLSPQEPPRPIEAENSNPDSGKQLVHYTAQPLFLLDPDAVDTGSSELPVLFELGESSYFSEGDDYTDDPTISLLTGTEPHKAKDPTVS
# Sequence of Glucose-6-phosphate 1-dehydrogenase (P11413 whole entry, the tested form may be a part): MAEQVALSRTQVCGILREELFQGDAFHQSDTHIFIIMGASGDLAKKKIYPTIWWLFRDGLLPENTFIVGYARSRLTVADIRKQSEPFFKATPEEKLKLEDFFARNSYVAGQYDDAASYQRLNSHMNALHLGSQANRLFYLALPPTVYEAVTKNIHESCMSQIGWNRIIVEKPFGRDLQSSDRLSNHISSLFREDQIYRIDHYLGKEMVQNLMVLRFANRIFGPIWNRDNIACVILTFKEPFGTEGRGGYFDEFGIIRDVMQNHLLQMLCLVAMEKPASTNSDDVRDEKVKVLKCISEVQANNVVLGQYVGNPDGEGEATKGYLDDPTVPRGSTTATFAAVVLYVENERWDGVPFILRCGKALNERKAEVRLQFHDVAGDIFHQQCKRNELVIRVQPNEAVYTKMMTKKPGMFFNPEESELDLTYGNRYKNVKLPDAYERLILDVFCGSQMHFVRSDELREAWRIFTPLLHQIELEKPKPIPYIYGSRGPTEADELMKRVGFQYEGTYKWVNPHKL
# Sequence of Induced myeloid leukemia cell differentiation protein Mcl-1 (Q07820 whole entry): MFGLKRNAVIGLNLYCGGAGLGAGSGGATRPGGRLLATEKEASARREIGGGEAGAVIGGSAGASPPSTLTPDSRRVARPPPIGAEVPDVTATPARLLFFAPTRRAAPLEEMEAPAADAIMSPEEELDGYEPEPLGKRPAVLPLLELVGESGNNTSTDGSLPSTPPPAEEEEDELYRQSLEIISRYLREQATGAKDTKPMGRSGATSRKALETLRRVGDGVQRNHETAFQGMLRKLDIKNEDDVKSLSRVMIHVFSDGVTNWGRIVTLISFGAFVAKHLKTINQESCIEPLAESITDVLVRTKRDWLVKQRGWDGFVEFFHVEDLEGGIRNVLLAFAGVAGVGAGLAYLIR
# Sequence of Genome polyprotein (P29990 2492-3391 limits assumed): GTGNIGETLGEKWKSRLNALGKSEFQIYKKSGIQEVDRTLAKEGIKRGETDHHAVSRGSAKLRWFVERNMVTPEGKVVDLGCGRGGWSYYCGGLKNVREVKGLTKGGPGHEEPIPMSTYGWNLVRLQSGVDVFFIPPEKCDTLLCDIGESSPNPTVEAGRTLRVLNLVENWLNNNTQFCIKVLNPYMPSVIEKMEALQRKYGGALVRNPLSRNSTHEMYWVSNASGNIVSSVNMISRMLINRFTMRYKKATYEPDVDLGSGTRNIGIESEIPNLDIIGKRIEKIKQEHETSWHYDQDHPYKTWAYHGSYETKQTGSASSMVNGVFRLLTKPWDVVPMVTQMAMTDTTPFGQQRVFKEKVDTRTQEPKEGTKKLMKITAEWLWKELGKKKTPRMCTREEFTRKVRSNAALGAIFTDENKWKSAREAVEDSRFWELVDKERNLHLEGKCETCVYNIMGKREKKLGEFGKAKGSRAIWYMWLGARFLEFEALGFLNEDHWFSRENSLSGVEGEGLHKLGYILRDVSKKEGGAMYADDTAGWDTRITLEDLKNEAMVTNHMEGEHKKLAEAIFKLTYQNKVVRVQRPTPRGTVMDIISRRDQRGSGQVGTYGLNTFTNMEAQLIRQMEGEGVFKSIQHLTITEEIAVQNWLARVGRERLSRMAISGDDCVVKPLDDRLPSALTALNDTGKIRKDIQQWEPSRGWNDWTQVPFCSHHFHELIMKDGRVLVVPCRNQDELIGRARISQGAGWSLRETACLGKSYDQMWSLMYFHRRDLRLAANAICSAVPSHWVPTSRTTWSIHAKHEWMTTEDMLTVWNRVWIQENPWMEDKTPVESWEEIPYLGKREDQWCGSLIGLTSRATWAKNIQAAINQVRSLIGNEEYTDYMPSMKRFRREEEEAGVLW
structure (smiles),measurement,setting,value
CCn1nc(NC(=O)c2ccncc2)c2cc3cc(C)ccc3nc21,EC50,[1],1.88 µM (active)
same,EC50,Streptokinase A,> 150 µM (not active)
same,CC50,[2],> 40 µM (active)
same,EC50,Streptococcus,11.4 µM (active)
Cc1ccc(C)c(NC(=O)c2cc(-c3ccccc3)nn2-c2ccccc2)c1,CC50,[2],> 40 µM (active)
same,AC50,[3],33.9 µM (active)
CCc1ccc(OCC(=O)NC(N=C(S)Nc2ccc(Cl)cc2)C(Cl)(Cl)Cl)cc1 (stereo not drawn),EC50,[4],13.8 µM (active)
same,EC50,[5],13.6 µM (active)
same,AC50,[6],4.96 µM (active)
same,AC50,[7],18.1 µM (active)
same,AC50,[8],26.1 µM (active)
CCn1nc(C)c(/C=N/NC(=O)Cc2ccc(Cl)cc2)c1C,IC50,[9],< 0.4 µM (not active)
CCN(c1ccc(NC(=O)CCNC(=O)c2ccco2)cc1)C(C)C,IC50,[9],3.29 µM (not active)
O=P(Nc1cccc(Cl)c1)(Oc1ccccc1)Oc1ccccc1,IC50,[10],8.58 µM (not active)
O=C(C[C@@H]1CC[C@H]2[C@@H](COC[C@H](O)CN2Cc2cccc(C(F)(F)F)c2)O1)NCc1ccc(Cl)cc1,AC50,[11],4.85 µM (active)
same,AC50,[12],10.9 µM (active)
CCOC(=O)c1c(NC(=O)c2ccc(C)cc2)sc2c1CC(C)(C)NC2(C)C,IC50,[13],> 20 µM (inactive)
C/C=C(/C)C(=O)OC1Cc2c(ccc3ccc(=O)oc23)OC1(C)C (stereo not drawn),IC50,[14],> 80 µM (inactive)
Clc1ccc2c(c1)CNc1c(ncnc1N1CCOCC1)O2,IC50,[13],> 20 µM (inactive)
O=C(Nc1cc(Sc2ccccn2)cc([N+](=O)[O-])c1)c1cccc(F)c1,IC50,[10],5.86 µM (not active)
same,AC50,INS1,5.55 µM (active)
CCOC(=O)c1sc(NC(=O)CSc2nnc(Cc3ccccc3)o2)c(C#N)c1C,IC50,[15],> 80 µM (inactive)
CCOc1ccc(NC(=O)c2ccc(NC(=O)c3ccc(NC(N)=O)cc3)cc2)cc1,IC50,[16],3.89 µM (active)
C[C@H](NC(N)=O)C(=O)Nc1ccc(N2CCOCC2)c(S(=O)(=O)Nc2ccc(Cl)cc2)c1,IC50,[15],> 80 µM (inactive)
O=C(O/N=C/c1ccc2c(c1)OCO2)c1ccc([N+](=O)[O-])cc1,IC50,[10],16 µM (not active)
same,IC50,cells,8.31 µM (active)
CN(C)c1ccc(/C=c2\sc3nc(-c4ccccc4)nn3c2=O)cc1,IC50,[9],5.67 µM (active)
O=C(Nc1ccn(Cc2ccccc2F)n1)c1ccc(COc2ccccc2Cl)cc1,CC50,[2],> 40 µM (active)
same,AC50,[3],1.02 µM (active)
CC(C)[C@H](N)c1nnc(SCC(=O)c2ccc(Cl)cc2)o1,IC50,[14],> 80 µM (inactive)
COc1cc(/C=C2\C(=N)N3N=C(N4CCOCC4)SC3=NC2=O)ccc1OC(=O)c1ccccc1,IC50,Genome polyprotein,80.1 µM (active)
CCCn1c(O)nnc1SCc1nc2ccccc2s1,EC50,[17],3.71 µM (active)
same,EC50,[18],22.7 µM (active)
same,EC50,H4,37.1 µM (active)
same,IC50,[10],0.803 µM (not active)
COc1ccccc1NC(=O)N[C@@H]1C=C[C@H](CC(=O)NCc2ccc(Cl)c(Cl)c2)O[C@@H]1CO,AC50,[11],14.6 µM (active)
same,AC50,[12],43 µM (active)
CC(Cl)=CCn1c(NCCc2ccccc2)nc2c1c(=O)n(C)c(=O)n2C,AC50,[7],58.8 µM (active)
same,AC50,[8],0.974 µM (active)
same,AC50,[11],33.4 µM (active)
same,AC50,[12],3.67 µM (active)
CCOC(=O)C1CCCN(C(=O)CSc2ccc(NC(C)=O)cc2)C1 (stereo not drawn),IC50,[10],< 0.4 µM (not active)
CCN(CC)C(=O)c1ccc(S(=O)(=O)Cc2ccc(C)cc2)c([N+](=O)[O-])c1,IC50,[14],> 80 µM (inactive)
CN1C(=O)c2cccc3c(S(=O)(=O)Nc4ccccc4F)ccc1c23,IC50,[14],> 80 µM (inactive)
O=C(COC(=O)c1c[nH]c(=O)[nH]c1=O)Nc1cccc([N+](=O)[O-])c1,IC50,[13],> 20 µM (inactive)
COc1ccc(-c2ccc(OC)c([C@H]3[C@H]4C=CC[C@@H](C)[C@@H]4C(=O)N3Cc3ccccc3)c2)cc1C,IC50,[14],> 80 µM (inactive)
Cc1c(Br)c([N+](=O)[O-])nn1CCCC(=O)Nc1c(C)n(C)n(-c2ccccc2)c1=O,IC50,[13],> 20 µM (inactive)
Cc1cc(NC(=O)CSc2nc3ccsc3c(=O)n2CCCC(=O)NCCc2ccccc2)no1,IC50,[10],14.1 µM (not active)
CC1CC(=O)C(C(C2=C(O)CC(C)CC2=O)c2ccccc2)=C(O)C1 (stereo not drawn),IC50,Genome polyprotein,66.2 µM (active)
O=C(CBr)c1ccc([N+](=O)[O-])c(CS(=O)(=O)c2ccc(Cl)cc2)c1,IC50,[15],> 80 µM (inactive)
same,EC50,[19],31.9 µM (active)
CC1CN(Cc2csc(-c3ccc(Cl)cc3)n2)CC(C)O1 (stereo not drawn),IC50,[10],13.2 µM (not active)
O=C(NCc1ccco1)C1CCN(C(=O)c2cc3sccc3n2Cc2ccc(Cl)cc2)CC1,IC50,[10],10.9 µM (not active)
C[C@H](C(=O)N(C)C[C@@H]1OCc2ccccc2-c2ccccc2C(=O)N([C@@H](C)CO)C[C@H]1C)c1ccccc1,AC50,[11],1.23 µM (active)
same,AC50,[12],8.04 µM (active)
CCCCn1c(CN2CCN(c3ccc(F)cc3)CC2)nc2c1c(=O)n(C)c(=O)n2C,AC50,[6],2.73 µM (active)
same,AC50,[7],5.36 µM (active)
same,AC50,[8],23 µM (active)
Cc1ccc(-c2c(C(=O)N/N=C/c3ccsc3)nnn2-c2nonc2N)cc1,IC50,[15],> 80 µM (inactive)
Nc1nc(N)c2cc(Sc3cccc(C(F)(F)F)c3)ccc2n1 [WR-159412],AC50,[6],4.87 µM (active)
same,AC50,[7],2.34 µM (active)
same,AC50,[8],19.7 µM (active)
CN(c1ccccc1)S(=O)(=O)c1ccc(Cl)c(C(=O)OCC(=O)NCc2ccco2)c1,IC50,[16],8.74 µM (active)
